Experimental data published in patent publication US12251383B2, “Methods and compositions for KRAS inhibitors” (The Board of Regents of the University of Texas System, priority 2019, dated 2025).
“Also recorded” adds a separate entry of the source.

Legend:
[1] = biological target: GDP-bound KRAS^WT (Homo sapiens, UniProt P01116); assay: MST binding, GDP-bound KRAS WT; details: GDP state
Text: (§1) FIGS. 1A-1D show representative data for the predicted binding mode and measured affinity of disclosed compound 11 to KRAS. (FIG. 1A) Structure of the catalytic domain of KRAS used for the virtual screening. Lobe1 (residues 1-86) and lobe2 (residues 87-166) are highlighted in different colors, as well as switches 1 (residues 30-40) and 2 (residues 60-75). The location of the target allosteric pocket p1 is indicated. (FIG. 1B) Chemical structure of compound 11. (FIG. 1C) Predicted binding pose of compound 11, with the key residues that make polar or vdW contacts with the ligand labeled. (FIG. 1D) Microscale thermophoresis (MST) experiments indicating direct binding of compound 11 to KRAS, along with dissociation constants (KD) derived from the curves. Changes in fluorescence upon titration of […] KRAS with increasing concentration of compound are shown: KRAS^WT (red), KRAS^G12C (green), KRAS^G12D (purple) and KRAS^Q61M (blue), each bound to the non-hydrolyzable GTP analogue, guanylyl imidodiphosphate (GNP). The same experiments indicated no binding to GDP-bound KRAS^G12D and KRAS^WT as well as Rap1B, which was used as control. […]

[2] = biological target: GDP-bound KRAS^G12D (Homo sapiens, UniProt P01116, G12D); assay: MST binding, GDP-bound KRAS G12D; details: GDP state
Text: as §1

[3] = biological target: T1, KRAS^G12D-Raf^RBD interaction (Homo sapiens, UniProt P01116, G12D); assay: Pull-down of GFP-KRAS G12D by GST-Raf RBD from cell lysates; assay type: binding
T1 construct: expressed in transfected cells; host or cells: BHK cells expressing GFP-RAS (lysate); GST-Raf RBD made in E. coli BL21 from a GEX plasmid
Text: [formula] where P1 is polarization of free KRAS, P2 is polarization of Raf-bound KRAS, c is the total concentration of KRAS, and x the total concentration of Raf^RBD. (FIG. 2B) Amount of GFP-KRAS^G12D pulled down by GST-Raf^RBD after treatment of cell lysates with compound at the concentrations indicated (representative Westerns are shown at the top). The RBD sequence length was 1-149 and 51-131 in the fluorescence polarization and pull-down assays, respectively. (FIG. 2C) GFP fluorescence lifetime from FLIM-FRET using cells expressing GFP-KRAS^G12D alone or with RFP-Raf, with or without treatment by 1 μM compound 11. Data are shown as mean±S.E; significance estimated by one-way analysis of variance.
Pull-down. GFP-RAS with GST-tagged RAS binding domain (RBD) of cRaf^A85K (hereafter GST-Raf^RBD) pulled down to monitor RAS-Raf interaction. To prepare GST-Raf^RBD bound to agarose beads, bacteria (BL21) transfected with a previously cloned GEX plasmid were grown in selection media to OD levels of 0.5-1.0 before protein expression was initiated with IPTG (1:1000). After 4 h, the sample was centrifuged at 6000 rpm for 5 min at 4° C., the pellet was re-suspended with PBS containing 5 mM EGTA, 1% Triton X, PIC 1:50 and PMSF 1:100, and cells were lysed with cycles of freezing and thawing. The lysate was sonicated to breakup DNA, and pelleted. […]

Structure (SMILES) | binding (in words) [1] | binding (in words) [2] | decrease in GFP-KRAS^G12D levels pulled down ([3]; at 1 μM) [%] | effect on KRAS^G12D-Raf^RBD interaction (pull-down) ([3]; 10 μM)
Cc1nn2c(N3CCN(CCO)CC3)cc(-c3ccccc3)nc2c1-c1ccccc1 [Compound 11, 2-[4-(8-methyl-3,9-diphenyl-2,6,7-triazabicyclo[4.3.0]nona-2,4,7,9-tetraen-5-yl)piperazin-1-yl]ethanol] | no binding; also recorded: does not bind | no binding | > 50 | –
Cc1cc(N2CCN(CCO)CC2)n2nc(C)c(-c3ccccc3)c2n1 [Compound 13] | does not bind | does not bind | – | disrupts
